Source: patent US10723716B2, “Alpha-helix mimetics as modulators of Abeta self-assembly” (New York University, priority 2016, dated 2020)
Entries after “also recorded” stand apart in the source; their conditions may differ. Where two headings read alike, the source gives them in different places.

Tests used:
Aβ42 [1] = molecular target: T1, Aβ42 (Homo sapiens, UniProt P05067); test: ThT-based kinetic assay of Aβ42 aggregation; assay type: biochemical; settings: for effect on Aβ42 oligomerization/fibrillation (ThT): equimolar ratio
T1 construct: Cleavage of APP results in several Aβ isoforms; The predominant species are Aβ42 and Aβ40; purchased Anaspec (Fremont, Calif., USA)
T1 sequence (P05067 672-713 limits assumed): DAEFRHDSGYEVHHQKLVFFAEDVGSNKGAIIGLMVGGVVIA
Text: The aggregation of Aβ42 was monitored using an established exogenous dye, Thioflavin T (ThT) that intercalates between the amyloid fibers along the perpendicular axis without affecting the kinetics of amyloid formation. (see Wolfe, L. S.; Calabrese, M. F.; Nath, A.; Blaho, D. V.; Miranker, A. D.; Xiong, Y. Proc. Natl. Acad. Sci. U.S.A. 2010, 107, 16863-16868; Levine, H. Protein Sci. 1993, 2, 404-410). A representative ThT-based kinetic assay results are depicted in FIG. 2. The oligomerization reaction of Aβ42 was initiated by diluting a 1 mM stock solution of Aβ42 (in DMSO) to a concentration of 20 μM in phosphate buffer (150 mM KCl, 50 mM NaPi, pH 7.4). Aβ42 fibrillation is a nucleation-dependent polymerization process and is characterized by a sigmoidal curve consisting of a lag phase, an elongation phase, and a plateau phase (FIG. 2a). The kinetic reaction was quantified by extracting t50, which is the time required to reach 50% of the maximum fluorescence that results from fibrillation. Under standard conditions the tso for Aβ42 fibrillation was 2.1±0.2 h (FIG. 2a and FIG. 8).
Kinetic assays were conducted on a FlexStation 3 Multi-Mode Microplate reader from Molecular Devices (Sunnyvale, Calif., USA). Experiments were conducted in triplicate in a 96-well plate with a final volume of 200 μL per well. Every measurement was an average of 50 readings. The aggregation of an amyloidogenic peptide (Aβ40, Aβ42, or IAPP) was initiated by the addition of the peptide from a stock solution (in DMSO, 0.5-1 mM) to phosphate buffer. The final concentration of each peptide was different based on their aggregation. The stoichiometry of ThT dye for each peptide was 0.5:1 (ThT:peptide). Peptide aggregation was monitored by ThT fluorescence (λex=445 nm and λem=485 nm). The blank sample contained all the components of the peptide samples except the peptide. The sample data were processed by subtracting the fluorescence of the blank sample. The fluorescence intensity data was then normalized by setting the maximum value to 1.
Kinetic assays in the presence of the compounds of the invention were conducted under the same conditions. The small molecules were added from a stock solution (1 mM or 10 mM in DMSO) to keep the final concentration of DMSO less than 1.0% (v/v). Small molecules were added to the wells with ThT and buffer and mixed gently with a pipette before adding the peptide. To keep the conditions identical, an equal amount of DMSO was added to the wells with the peptide-only control reactions.
Kinetic profiles were processed using Origin (version 9.1). Kinetic curves were fit using the built-in sigmoidal fit. Each run was fit independently to extract the t50 (time required to reach 50% of the maximum fluorescence intensity). Error bars represent standard deviations from the mean of at least three independent experiments.
In the delayed addition experiments, where the oligopyridylamides were added at various time points during Aβ amyloid reaction, the conditions were same (as used for the assays where Aβ was preincubated with the oligopyridylamides). The Aβ oligomerization process was initiated by dissolving Aβ into buffer solution and then oligopyridylamides were added to this solution at indicated time points (depend on the assay) at an equimolar ratio.

Aβ42 [2] = molecular target: T1, Aβ42; test: Dot blot assay with A11 antibody; assay type: biochemical; settings: Aβ42, equimolar ratio, whole time course
Method: Samples of Aβ42 at concentrations from 2 μM to 5 μM were incubated at various time intervals in the absence and presence of the compounds of the invention at an equimolar ratio (see FIG. 4j). The samples were then applied to a nitrocellulose membrane and dried at room temperature for 1 h or overnight at 4° C. The membranes were then blocked with 5% nonfat milk in Tris buffer (20 mM Tris, pH 7.4) for 1 h at room temperature. The nitrocellulose membranes were then washed (×3) with 20 mM Tris, pH 7.4 supplemented with 0.01% Tween-20 (TBST) and incubated with polyclonal A11 antibody (1/1000 dilution in 5% nonfat milk in TBST, Life Technologies Corp., Grand Island, N.Y., USA) overnight at 4° C. Samples were then washed (×3) with TBST buffer and incubated with horseradish peroxidase (HRP) conjugated anti-rabbit IgG (1/500 dilution in 5% nonfat free milk in TBST) at r.t. for 1 h. The dot blots were then washed with TBST buffer (×3), developed using the ECL reagent kit (Amersham, Piscataway, N.J., USA), and imaged using a Typhoon FLA 9000 instrument (GE Healthcare Life Sciences, Pittsburgh, Pa., USA) using chemiluminescence settings. A similar experiment was repeated using 6E10 antibody ( 1/1000 dilution in 5% nonfat free milk in TBST, Biolegend, San Diego, Calif., USA) for comparison.

Neuro-2a cells = test: Effect of compound alone on Neuro-2a cell viability; assay type: cell-based, mouse; settings: for toxicity of compound alone to Neuro-2a cells: matched cytotoxic experimental conditions, no Aβ42
Method: To investigate the toxic effect of the peptide alone on cell viability, solution (B) without the oligopyridylamide compound was mixed with solution (A), while the effect of the oligopyridylamide compound alone was determined by adding solution (A) without peptide to solution (B). The effect of oligopyridylamides on seed-catalyzed Aβ42 aggregation was probed by preparing an additional solution (C) containing 0.5 μM seeds. The volume contributed by solution (C) was taken into account in preparing solution (B). Solution (C) was mixed with solution (B), and the resulting mixture was then added to solution (A) shortly before addition to the wells. To study the effect of oligopyridylamides on the oligomeric states of Aβ42, solution (A) was mixed with solution (B) without inhibitor and incubated at room temperature for 1, 2 or 3 h. Subsequently, 50 μM oligopyridylamides was added to the mixture, which was then immediately added to the cells. […] The MTS reagent was incubated for 2.5 h at 37° C., and absorbance of the soluble formazan product (λ=490 nm) of MTS reduction was measured on a Synergy H1MF Multi-Mode microplate-reader (BioTek, Winooski, Vt., USA), with a reference wavelength of 650 nm to subtract the background. Wells treated with a solution containing serum-free DMEM, 200 μM NaOH, 0.1×PBS and 0.5% (v/v) DMSO served as control. MTS reduction was determined from the ratio of the absorbance of the treated wells to the control wells. Each data point represents an average of four independent quadruplet-well trials.

Aβ42 [3] = molecular target: T1, Aβ42; test: ThT-based kinetic assay of Aβ42 aggregation; assay type: biochemical; settings: 5 μM Aβ42, equimolar, compound added at 2 h
[4] = test system: Aβ42 mediated toxicity in mouse neuroblastoma (N2a) cells; test: Aβ42 mediated toxicity in Neuro-2a cells (MTS cell viability); assay type: cell-based; settings: for IC50: 5 μM Aβ42, N2a cells, read-out: IC50 (concentration required to inhibit 50% cell toxicity induced by 5 μM Aβ42); for cell viability, delayed addition: in % (unit assumed)
[5] = mouse/rat NG108-15, N2a, 5 μM Aβ42 + seeds (10% v/v), 5 μM compound, without compound 31%, read-out: cell viability, seed-induced Aβ42 cytotoxicity

Structure (SMILES) | effect on Aβ42 oligomerization/fibrillation (ThT) (Aβ42 [1]) | A11 signal intensity of the dots (Aβ42 [2]) | toxicity of compound alone to Neuro-2a cells (Neuro-2a cells) | effect on Aβ42 amyloid reaction on delayed addition (Aβ42 [3]) | IC50 ([4]; mouse/rat NG108-15, N2a) | viability at 5 µM [4, 5] | change in ThT fluorescence intensity in control reaction (Aβ42 [1]; control reaction without Aβ42, matched conditions) | ThT fluorescence intensity characteristic of Aβ42 oligomers (Aβ42 [1]; sub-stoichiometric ratios of 1:0.5 and 1:0.1 (Aβ42:ADH-41)) | cell viability, compound alone (Neuro-2a cells; 4 μM ADH-41 + 1 μM ADH-41F, N2a cells, 24 h) | IC50 [4] | cell viability, delayed addition ([4]; ADH-41 added after 24 h of exposure to 5 μM Aβ42) | cell viability, delayed addition ([4]; ADH-41 added after 48 h of exposure to 5 μM Aβ42) | viability at 5 µM ([4]; mouse/rat NG108-15, N2a, 24 h, read-out: cell viability) | viability at 5 µM ([4]; mouse/rat NG108-15, N2a, read-out: cell viability, delayed addition)
COC(=O)c1ccc(NC(=O)c2ccc(NC(=O)c3ccc(NC(=O)c4ccc([N+](=O)[O-])c(OCC(C)C)n4)c(OCc4ccccc4)n3)c(OCC(=O)O)n2)c(OCC(=O)O)n1 [ADH-31] | wholly suppressed | weak intensities | not toxic | effective in inhibiting | 2500 ± 100 nM | 69% | – | – | – | – | – | – | – | –
COC(=O)c1ccc(NC(=O)c2ccc(NC(=O)c3ccc([N+](=O)[O-])c(OCc4ccccc4)n3)c(OCCCN)n2)c(OCCCN)n1 [ADH-41] | completely inhibited; also recorded: effectively blocks; also recorded: decreased significantly | significantly weaker | not toxic | effective in inhibiting | 1450 nM | 63% | no change | < 10% | 98% | 1400 ± 100 nM | 79±2 | 102±2 | 99% | 93 ± 2%
